Data: patent publication US20240398831A1, “COMPOSITIONS COMPRISING SMALL MOLECULE REGULATORS OF TUMOR IMMUNITY AND METHODS OF USING SAME” (Duke University, priority 2021, published 2024)
Where two headings read alike, the source gives them in different places.

Key:
B16F10 tumors = test: B16F10 syngeneic melanoma tumor model in ovariectomized mice (tumor growth, flow cytometry); type: in vivo, mouse
Experimental: (§1) Tumor models and cells. The mouse B16F10 and Yumm5.2 cell lines were purchased from American Type Culture Collection (ATCC, Manassas, VA). The mouse melanoma cell line BPD6 was established from iBP as described elsewhere (Zhao et al., Immunity 2018, 48, 147-160). B16F10 and BPD6 cells were maintained in Dulbecco's Modified Eagle's Medium (DMEM) supplemented with 8% fetal bovine serum (FBS), 0.1 mM non-essential amino acids (NEAA) and 1 mM sodium pyruvate. YuMM5.2 cells were maintained in DMEM/F12 media supplemented with 10% FBS. The cells were replated 3 times/week at a confluency of 1:10 and were kept in a 37° C. incubator at 5% CO2. For subcutaneous tumor models B16F10 (5×10^4 or 1×10^5), YuMM5.2 (5×10^5), and BPD6 (5×10^5) cells were injected into the right flank of the mice. For iBP mice, tumors were induced with a single intradermal dose of 4-hydroxytamoxifen in DMSO (150 μg/mouse). Tumors were measured thrice weekly using an electronic caliper. Tumor volumes were calculated by the formula V=L×(W×W)/2. For iBP mouse tumors, volumes were calculated by the formula V=L×B×H. For tumor growth rate studies mice were euthanized when the tumors reached a maximum size of 2000 mm^3.
(§2) Ovarlectomy and subcutaneous pellet Insertion. Ovariectomy was performed as previously described (Nelson et al., Science 2013, 342, 1094-1098). Eight days prior to tumor inoculation, 7 weeks old C57BL/6J or 5 weeks old (iBP) female mice were subjected to ovariectomy or sham surgery. Mice were anesthetized in an inhalation chamber (2% Isoflurane) and maintained in half the dose of isoflurane (1%) via nose cone throughout the surgical process. Prior to surgery, mice were administered a 5 mg/kg dose of carprofen subcutaneously. The area below the ribs was shaved with an electronic razor and the skin was sterilized by rubbing with betadine and alcohol (3× alternating). A horizontal incision was made through the skin above the ovary fat pad, followed by a vertical incision through the abdominal muscle wall. The ovary was externalized and removed using a cauterizing scissors (or returned if sham). Fat pad was replaced, and muscle walls were opposed and sutured (1-2 stitches). Following suturing, 1 drop of bupivacaine (0.25%) was added on top of the incision site. The skin was opposed, and a wound clip was placed on the incision site. This was repeated for the other ovary. The mouse was then removed from anesthesia and kept in a clean cage and monitored until conscious. The mice were monitored for recovery for 10 days.
(§3) Single cell isolation from tumors. Tumors were isolated, minced on a petri dish in media (DMEM+5% FBS), and then enzymatically digested by the addition of 100 μg/mL DNase I (D5025-150KU, Sigma-Aldrich) and 1 mg/mL collagenase (Collagenase A, Cat #10103586001, Sigma-Aldrich) for 30 mins-45 mins. For iBP models, isolated tumors were sliced into large chunks and subjected to mechanical digestion in a gentleMACS Dissociator for 30 seconds twice. Following this, tumors were digested with an enzyme cocktail containing DNase I, collagenase, and hyaluronidase (100 μg/mL) (H6254, Sigma-Aldrich) for 40 mins following a second round of mechanical digestion for 30 seconds (twice). The cells were then filtered through a 40 μm strainer to produce single cell suspensions and the enzymes were diluted by addition of additional media then spun down to remove media. Red blood cells were lysed with the addition of ACK lysis buffer (Cat #A1049201. ThermoFisher Scientific) for 4 mins at room temperature. Following red blood cell lysis, cells were washed with PBS before proceeding to flow cytometry staining or magnetic bead-based isolation.
(§4) Flow cytometry staining. Single cells suspensions (10^6 cells in 50 μL) were incubated with Live/dead fixable dead cell stain in PBS for 10 mins at 4° C. Cells were spun down at 1000×g and were incubated with anti-CD16/32 (Catalog #14-0161-85, ThermoFisher Scientific) in flow buffer (10 gms BSA in 1 L PBS+sodium azide) for 15 mins. […]

YuMM5.2 tumors = type: in vivo
Experimental: as §1, §2, §3, §4

YuMM5.2 cells = test: Quantitative PCR of Wnt5A-β-catenin targets in melanoma tumor cells; type: cell-based, mouse
B16F10 cells = test: Quantitative PCR of ER target genes in melanoma cells; type: cell-based, mouse; details: E2 1 nM, 16 hr
iBP tumors = test: iBP autochthonous melanoma mouse model (tumor growth, flow cytometry); type: in vivo; details: E2 vs placebo
From the text: Mice. C57BL/BJ, LysMCre (B6.129P2-Lyz2^tm1(cre)lfo/J) Pmel (B6.Cg-Thy1^a/Cy Tg(TcraTcrb)8Rest/J) mice were from Jackson Laboratories (Bar Harbor, ME). Age matched mice were used for all the studies. LysMCre mice were bred to Esr1^f/f mice to generate Esr1^f/f; LysMCre and littermate control LysMCre and Esr1^f/f mice. iBP (Braf^V600E/WT, Pten^f/fmTyrCreERT2) mice were generated by crossing breeders Braf^WT/WT/Pten^f/f, mTyrCreERT2 mice to BRAF^V600E, Pten^f/f mice. The mice were housed in secure animal facility cages in 12 hour light:dark cycles at temperature around 25° C. and 70% humidity. Mice had access to ad-libitum food and water. NSG (NOD.Cg-Prkd^scid Il2rg^tm1Wjl/SzJ) mice were from the Division of Laboratory Animal Resources (Duke University). The NSG animals were fed with a GL3 diet and were kept in pathogen free conditions.
as §1, §2
Single cell isolation from tumors. Tumors were isolated, minced on a petri dish in media (DMEM+5% FBS), and then enzymatically digested by the addition of 100 μg/mL DNase I (D5025-150KU, Sigma-Aldrich) and 1 mg/mL collagenase (Collagenase A, Cat #10103586001, Sigma-Aldrich) for 30 mins-45 mins. For iBP models, isolated tumors were sliced into large chunks and subjected to mechanical digestion in a gentleMACS Dissociator for 30 seconds twice. […]

[1] = fulvestrant 25 mg/kg, E2 supplemented mice
[2] = BMDM from Esr1^f/f, LysMCre versus Esr1^f/f
[3] = E2 vs placebo, ovariectomized C57BL/6J
[4] = Esr1^f/f and LysMCre control mice
[5] = Esr1^f/f, LysMCre mice (myeloid ERα knockout)
[6] = E2 vs placebo, ex vivo PMA and ionomycin 4 hr

With C[C@]12CC[C@@H]3c4ccc(O)cc4C[C@@H](CCCCCCCCC[S+]([O-])CCCC(F)(F)C(F)(F)F)[C@H]3[C@@H]1CC[C@@H]2O (stereo partly shown) [fulvestrant] the tumor growth (B16F10 tumors; [1]) was “significantly reduced”, the “inflammatory macrophages (MHCII^hi CD206−)” value (YuMM5.2 tumors; E2 treated mice co-treated with fulvestrant) was “increase” and the tumor growth (YuMM5.2 tumors; [1]) was “significantly reduced”. For the same compound, the “number of PD1+CD8+ T cells (exhausted T cells)” value (YuMM5.2 tumors; fulvestrant treatment of E2 treated mice) was “decrease”, the “cytotoxic capabilities of tumor infiltrating T cells, Granzyme B (GZMB) expression” value (YuMM5.2 tumors; mouse, in vivo) was “increase” and the “expression of WNT5A-β-catenin targets” value (YuMM5.2 cells; E2 (1 nM)+fulvestrant (100 nM)) was “did not change”.

For 17β-estradiol [E2], the “expression of classical ER target genes (Pgr and Cxc112)” value (B16F10 cells) was “did not lead to changes”, the “tumor promoting effects of E2, tumor cells co-mixed with BMDM (1:1)” value (B16F10 tumors; [2]) was “significantly compromised” and the tumor growth (B16F10 tumors; [3]) was “significantly increased”. The tumor growth (B16F10 tumors; [4]) was “increased”, the tumor growth (B16F10 tumors; [5]) was “not evident” and the “infiltration of immune cells (CD45+)” value (B16F10 tumors; flow cytometry, E2 vs placebo) was “not impacted by treatment”. For the same compound, the “percentage of Ly6C+/Ly6G+ MDSCs in tumors” value (B16F10 tumors; flow cytometry, E2 vs placebo) was “no changes”, the “ratio of intratumoral M1 (MHCII^hi CD206−) to M2 (MHCII^lo CD206+/hi) macrophages” value (B16F10 tumors; flow cytometry, E2 vs placebo) was “decreases” and the “tumor promoting effects of E2, tumor cells co-mixed with BMDM (1:1)” value (YuMM5.2 tumors; [2]) was “significantly compromised”. For the same compound, the “number of PD1+CD8+ T cells (exhausted T cells)” value (YuMM5.2 tumors; E2 treatment) was “increased”, the “Granzyme B expression in CD8+ TILs” value (YuMM5.2 tumors; [6]) was “reduced expression” and the “IFNγ in CD8+ TILs” value (YuMM5.2 tumors; [6]) was “reduced expression”. For the same compound, the “PD1 expression on CD8+ TILs” value (YuMM5.2 tumors; [6]) was “significantly more”, the “activation markers CD44 and CD69 on CD8+ TILs” value (YuMM5.2 tumors; [6]) was “reduced expression” and the tumor growth (YuMM5.2 tumors; [3]) was “significantly increased”. For the same compound, the “infiltration of CD4+ FOXP3+ regulatory T cell subsets” value (YuMM5.2 tumors; E2 vs placebo, FIGS. 16D-16E B16F10 and YuMM5.2) was “not observed”, the tumor growth (YuMM5.2 tumors; [4]) was “increased” and the tumor growth (YuMM5.2 tumors; [5]) was “not evident”. For the same compound, the “percentage of Ly6C+/Ly6G+ MDSCs in tumors” value (YuMM5.2 tumors; flow cytometry, E2 vs placebo) was “no changes”, the “M1 (proinflammatory macrophages) in tumor infiltrating immune cells” value (YuMM5.2 tumors; flow cytometry, Esr1^f/f animals) was “decrease” and the tumor growth (iBP tumors; ovariectomized iBP mice) was “accelerated tumor growth”. For the same compound, the “CD3+ T cell population, tumor-infiltrating” value (iBP tumors; flow cytometry) was “overall decrease”, the “infiltration of immune cells (CD45+)” value (iBP tumors; flow cytometry) was “not impacted by treatment” and the number of monocytes (iBP tumors; flow cytometry) was “trend was observed towards an increase”. For the same compound, the “ratio of intratumoral M1 (MHCII^hi CD206−) to M2 (MHCII^lo CD206+/hi) macrophages” value (iBP tumors; flow cytometry) was “decreases”, the “total number of F480+ macrophages” value (iBP tumors; flow cytometry) was “remaining unchanged” and the “CD4+ T cells, tumor-infiltrating” value (iBP tumors; flow cytometry, FIGS. 16B-16C show B16F10 and YuMM5.2) was “no significant changes”. For the same compound, the “expression of WNT5A-β-catenin targets” value (YuMM5.2 cells; E2 (1 nM)) was “did not change”.
